# Measurements taken from patent US9782472B2, “Therapeutic compositions and methods for treating HIV including identification and manipulation of particular domains associated with immunogenicity” (The Regents of The University of California, priority 2008, dated 2017).
# Key:
# Type in all cases: cell-based, HIV-1
# 108060_022 Q655R = tested on: 108060_022 Q655R
# Source text: (§1) Construction of envelope gene libraries and pseudoviruses. Libraries of envelope glycoprotein were created from each subject by PCR amplification of full length envelope genes from cryopreserved plasma using the method described previously. The swarm of PCR products was cloned into a plasmid expression vector useful for the construction of pseudoviruses. The vector was specifically designed to permit the construction of pseudovirus libraries for use in a well-established and validated virus neutralization assay. However, instead of pooling all of the clones together and carrying out neutralization assays or drug sensitivity assays with an entire library of cloned genes from each infected individual as had been done previously, we plated out the plasmid library on agar plates and picked 24-48 clones from each individual for infectivity studies. The plasmid DNA was isolated from each clone and used to create a stock of pseudovirus particles that were then screened for infectivity, and chemokine receptor usage. After verifying infectivity and receptor usage, we then selected approximately ten CCR5-dependent pseudotype viruses with good infectivity for virus neutralization assays. The virus neutralization assays were carried out as described by Schweighardt et al.
# (§2) Sequencing and mutagenesis. Plasmids containing cloned envelope glycoproteins were sequenced using fluorescently labeled dideoxynucleotides at either Monogram Biosciences or the University of California Sequencing Facility (Berkeley, Calif.) using capillary electrophoresis sequencing devices (Applied Biosystems, Foster City, Calif.). HIV envelope glycoprotein sequences were mutagenized by a mismatched primer method using the QuikChange Mutagenesis kit (Stratagene, San Diego). All mutations were confirmed by DNA sequencing. The numbering of amino acids is made with reference to the sequence of gp160 from clone 022 of from subject 108060. Position 655 corresponds to position 653 of the HXB2 reference strain of HIV-1.
# (§3) Virus neutralization assay. The automated virus neutralization assay described in this study has been described previously. The neutralization data reported represent IC50 values calculated from serum dilution curves. This assay employs multiple assay controls, including a positive pseudotype virus control panel and a negative pseudotype virus control panel. Assay acceptability criteria have been established to minimize interassay variability and assure comparability of data from different experiments. The positive virus control panel includes the pseudotypes from the neutralization sensitive isolate, NL43, and the less neutralization sensitive primary isolate JRcsf. The negative virus (specificity) control consists of pseudotype viruses prepared from the envelope of the amphitropic murine leukemia virus.
# 108069_005 Q655R = tested on: 108069_005 Q655R
# Source text: as §1, §2, §3
# 108060_024 R655Q = tested on: 108060_024 R655Q
# Source text: as §1, §2, §3
# 108051_005 Q655R = 108051_005 Q655R (numbering of 108060)
# Source text: as §1, §2, §3
# 108051_006 wtS = tested on: 108051_006 wtS
# Source text: as §1, §3
# 108069_011 wtS = tested on: 108069_011 wtS
# Source text: as §1, §3
# 108069_005 wtR = tested on: 108069_005 wtR
# Source text: as §1, §3
# 108060 clone 024 wtS = tested on: 108060 clone 024 wtS
# Source text: as §1, §3
# 108060 clone 022 wtR = details: 108060_022 wtR; 50% inhibition in target cell infection
# Source text: as §1, §3
# 108051_005 wtR = tested on: 108051_005 wtR
# Source text: as §1, §3
substance,measurement,setting,value
enfuvirtide,IC50 of indicated MAb or fusion inhibitor,108060_022 Q655R; 108060_022 Q655R,0.004 µg/mL
same,Fold increase in neutralization sensitivity,108060_022 Q655R; 108060_022 Q655R compared with wild-type clone 022,17 fold
same,IC50 of indicated MAb or fusion inhibitor,108069_005 Q655R; 108069_005 Q655R (numbering of 108060),0.011 µg/mL
same,Fold increase in sensitivity,"108069_005 Q655R; Q to R at position corresponding to 655 in the 108069 virus, versus parental virus",more than 17 fold
same,IC50 of indicated MAb or fusion inhibitor,108060_024 R655Q,0.130 µg/mL
same,IC50 of indicated MAb or fusion inhibitor,108051_005 Q655R,0.036 µg/mL
same,IC50 of indicated MAb or fusion inhibitor,108051_006 wtS,0.008 µg/mL
same,IC50 of indicated MAb or fusion inhibitor,108069_011 wtS,0.145 µg/mL
same,IC50 of indicated MAb or fusion inhibitor,108069_005 wtR,0.071 µg/mL
same,IC50 of indicated MAb or fusion inhibitor,108060 clone 024 wtS; 108060_024 wtS,0.019 µg/mL
same,Fold more sensitive to neutralization,108060 clone 024 wtS; clone 024 compared with clone 022 of subject 108060,3.5 fold
same,IC50 of indicated MAb or fusion inhibitor,108060 clone 022 wtR,0.068 µg/mL
same,IC50 of indicated MAb or fusion inhibitor,108051_005 wtR,0.088 µg/mL
